Columns and labels:
[1] = molecular target: 5-hydroxytryptamine receptor 5A (Homo sapiens) (UniProt P47898); settings: Compound concentration 10.0 uM
[2] = molecular target: T1, Serine/threonine-protein kinase VRK1 (Homo sapiens) (UniProt Q99986); assay: VRK1 SGC Tm panel (DSF); settings: for ΔTm: Compound concentration 10.0 uM
T1 sequence (whole entry): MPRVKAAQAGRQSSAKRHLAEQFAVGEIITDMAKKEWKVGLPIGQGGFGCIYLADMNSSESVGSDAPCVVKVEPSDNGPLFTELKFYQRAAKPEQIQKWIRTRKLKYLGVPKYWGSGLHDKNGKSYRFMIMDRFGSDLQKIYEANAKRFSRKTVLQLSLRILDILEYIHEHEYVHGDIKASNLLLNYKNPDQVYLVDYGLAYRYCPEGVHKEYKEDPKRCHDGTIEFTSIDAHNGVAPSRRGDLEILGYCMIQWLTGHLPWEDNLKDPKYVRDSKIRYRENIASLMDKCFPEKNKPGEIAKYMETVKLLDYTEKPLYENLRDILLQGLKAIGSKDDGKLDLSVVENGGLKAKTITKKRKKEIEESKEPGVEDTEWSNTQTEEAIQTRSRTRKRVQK

[3] = molecular target: T2, Dual specificity mitogen-activated protein kinase kinase 6 (Homo sapiens) (UniProt P52564); assay: MAP2K6 SGC Tm panel (DSF); settings: for ΔTm: Compound concentration 10.0 uM
T2 sequence (whole entry): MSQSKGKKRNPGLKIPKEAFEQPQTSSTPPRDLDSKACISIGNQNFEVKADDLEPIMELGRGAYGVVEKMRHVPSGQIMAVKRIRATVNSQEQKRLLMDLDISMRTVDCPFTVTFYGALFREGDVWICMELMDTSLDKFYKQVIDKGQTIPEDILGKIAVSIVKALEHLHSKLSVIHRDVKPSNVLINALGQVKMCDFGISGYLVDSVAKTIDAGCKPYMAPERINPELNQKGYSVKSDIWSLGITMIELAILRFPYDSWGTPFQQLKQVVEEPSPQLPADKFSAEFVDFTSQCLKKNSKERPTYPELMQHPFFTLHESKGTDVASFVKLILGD

[4] = molecular target: Delta-type opioid receptor (Homo sapiens) (UniProt P41143); settings: Compound concentration 10.0 uM
Delta-type opioid receptor (Homo sapiens), sequence (P41143 whole entry): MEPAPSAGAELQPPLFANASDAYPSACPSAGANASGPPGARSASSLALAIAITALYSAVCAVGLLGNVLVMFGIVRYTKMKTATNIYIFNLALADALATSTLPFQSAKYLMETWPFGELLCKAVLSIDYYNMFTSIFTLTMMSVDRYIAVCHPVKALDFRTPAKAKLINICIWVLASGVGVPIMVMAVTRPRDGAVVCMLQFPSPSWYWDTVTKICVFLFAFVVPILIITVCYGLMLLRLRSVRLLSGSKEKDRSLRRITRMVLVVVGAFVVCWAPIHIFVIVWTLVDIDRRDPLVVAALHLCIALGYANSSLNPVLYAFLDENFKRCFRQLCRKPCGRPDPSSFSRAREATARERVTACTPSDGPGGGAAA

[5] = molecular target: Muscarinic acetylcholine receptor M4 (Homo sapiens) (UniProt P08173); settings: Compound concentration 10.0 uM
Muscarinic acetylcholine receptor M4 (Homo sapiens), sequence (P08173 whole entry): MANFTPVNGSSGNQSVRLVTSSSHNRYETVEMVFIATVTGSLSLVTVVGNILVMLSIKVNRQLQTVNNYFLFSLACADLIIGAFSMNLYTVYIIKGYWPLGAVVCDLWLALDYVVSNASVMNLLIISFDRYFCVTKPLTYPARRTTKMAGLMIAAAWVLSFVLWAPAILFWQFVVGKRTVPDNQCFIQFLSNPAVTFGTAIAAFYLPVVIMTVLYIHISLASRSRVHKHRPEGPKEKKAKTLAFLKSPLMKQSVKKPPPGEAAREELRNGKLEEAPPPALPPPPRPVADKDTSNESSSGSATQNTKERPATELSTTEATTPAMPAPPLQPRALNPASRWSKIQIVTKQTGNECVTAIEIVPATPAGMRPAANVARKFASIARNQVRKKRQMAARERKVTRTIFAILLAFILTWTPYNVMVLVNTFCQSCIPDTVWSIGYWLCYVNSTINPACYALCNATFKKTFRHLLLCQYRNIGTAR

[6] = molecular target: Mitogen-activated protein kinase 8 (Homo sapiens) (UniProt P45983); assay: MAPK8 SGC Tm panel (DSF); settings: for ΔTm: Compound concentration 10.0 uM
Mitogen-activated protein kinase 8 (Homo sapiens), sequence (P45983 whole entry): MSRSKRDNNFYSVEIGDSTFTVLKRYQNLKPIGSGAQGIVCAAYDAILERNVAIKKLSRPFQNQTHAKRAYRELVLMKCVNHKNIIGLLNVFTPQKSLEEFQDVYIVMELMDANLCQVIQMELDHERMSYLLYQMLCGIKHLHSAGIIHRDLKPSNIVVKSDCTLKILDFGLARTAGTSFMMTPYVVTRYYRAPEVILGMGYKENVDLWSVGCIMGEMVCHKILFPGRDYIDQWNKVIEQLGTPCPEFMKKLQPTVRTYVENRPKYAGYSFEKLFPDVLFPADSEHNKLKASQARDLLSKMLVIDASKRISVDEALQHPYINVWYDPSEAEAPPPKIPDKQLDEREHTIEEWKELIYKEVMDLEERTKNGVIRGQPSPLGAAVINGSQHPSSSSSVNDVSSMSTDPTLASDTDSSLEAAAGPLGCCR

[7] = molecular target: Serine/threonine-protein kinase 10 (Homo sapiens) (UniProt O94804); assay: STK10 SGC Tm panel (DSF); settings: for ΔTm: Compound concentration 10.0 uM
Serine/threonine-protein kinase 10 (Homo sapiens), sequence (O94804 whole entry, looked up): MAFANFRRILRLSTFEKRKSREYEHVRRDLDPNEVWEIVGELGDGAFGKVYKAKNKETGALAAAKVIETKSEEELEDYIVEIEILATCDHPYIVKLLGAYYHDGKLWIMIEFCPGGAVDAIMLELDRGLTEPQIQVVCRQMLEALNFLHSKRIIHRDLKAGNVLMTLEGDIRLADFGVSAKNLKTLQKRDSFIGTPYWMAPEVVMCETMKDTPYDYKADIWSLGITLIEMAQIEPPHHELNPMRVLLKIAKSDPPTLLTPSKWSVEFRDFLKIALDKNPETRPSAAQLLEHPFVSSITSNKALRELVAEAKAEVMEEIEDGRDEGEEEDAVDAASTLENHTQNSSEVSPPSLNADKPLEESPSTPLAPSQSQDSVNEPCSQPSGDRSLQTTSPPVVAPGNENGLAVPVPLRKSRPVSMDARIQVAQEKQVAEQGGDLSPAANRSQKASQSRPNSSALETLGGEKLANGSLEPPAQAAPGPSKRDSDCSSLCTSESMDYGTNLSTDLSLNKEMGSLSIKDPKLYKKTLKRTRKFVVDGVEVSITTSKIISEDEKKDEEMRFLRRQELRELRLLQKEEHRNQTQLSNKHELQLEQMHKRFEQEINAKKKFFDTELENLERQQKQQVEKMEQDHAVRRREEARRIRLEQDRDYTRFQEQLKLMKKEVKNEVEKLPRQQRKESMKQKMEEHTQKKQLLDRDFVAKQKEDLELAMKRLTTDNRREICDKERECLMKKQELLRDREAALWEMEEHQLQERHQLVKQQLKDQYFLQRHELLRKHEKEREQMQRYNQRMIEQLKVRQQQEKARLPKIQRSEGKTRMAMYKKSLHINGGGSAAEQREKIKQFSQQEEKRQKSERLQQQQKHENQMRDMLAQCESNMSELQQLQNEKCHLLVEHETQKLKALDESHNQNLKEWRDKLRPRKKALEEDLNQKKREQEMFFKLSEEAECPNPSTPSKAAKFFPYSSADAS

[8] = molecular target: T3, Aurora kinase A (Homo sapiens) (UniProt O14965); assay: STK6 SGC Tm panel (DSF); settings: for ΔTm: Compound concentration 10.0 uM
T3 sequence (whole entry): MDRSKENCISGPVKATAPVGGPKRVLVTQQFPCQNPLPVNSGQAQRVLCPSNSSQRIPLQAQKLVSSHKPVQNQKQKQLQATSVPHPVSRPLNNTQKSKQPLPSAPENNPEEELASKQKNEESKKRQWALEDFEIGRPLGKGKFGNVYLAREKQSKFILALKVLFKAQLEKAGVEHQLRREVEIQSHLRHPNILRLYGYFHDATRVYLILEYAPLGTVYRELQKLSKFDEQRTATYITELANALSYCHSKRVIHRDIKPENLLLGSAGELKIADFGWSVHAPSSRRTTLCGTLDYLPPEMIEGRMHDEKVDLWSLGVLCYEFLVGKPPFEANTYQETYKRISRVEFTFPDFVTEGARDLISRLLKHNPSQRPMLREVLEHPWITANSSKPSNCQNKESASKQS

[9] = molecular target: D(4) dopamine receptor (Homo sapiens) (UniProt P21917); settings: Compound concentration 10.0 uM
D(4) dopamine receptor (Homo sapiens), sequence (P21917 whole entry): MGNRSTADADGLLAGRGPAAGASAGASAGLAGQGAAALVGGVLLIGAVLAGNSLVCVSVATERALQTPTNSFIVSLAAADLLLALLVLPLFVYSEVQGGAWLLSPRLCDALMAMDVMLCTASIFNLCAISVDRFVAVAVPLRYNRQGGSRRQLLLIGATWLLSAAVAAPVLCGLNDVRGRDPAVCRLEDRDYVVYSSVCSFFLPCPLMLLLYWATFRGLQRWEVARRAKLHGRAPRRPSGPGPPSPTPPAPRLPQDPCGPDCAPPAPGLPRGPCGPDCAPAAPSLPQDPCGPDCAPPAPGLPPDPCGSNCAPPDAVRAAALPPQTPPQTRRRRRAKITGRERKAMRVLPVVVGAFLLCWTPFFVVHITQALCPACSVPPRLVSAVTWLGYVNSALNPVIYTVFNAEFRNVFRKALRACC

[10] = molecular target: D(1A) dopamine receptor (Homo sapiens) (UniProt P21728); settings: Compound concentration 10.0 uM
D(1A) dopamine receptor (Homo sapiens), sequence (P21728 whole entry): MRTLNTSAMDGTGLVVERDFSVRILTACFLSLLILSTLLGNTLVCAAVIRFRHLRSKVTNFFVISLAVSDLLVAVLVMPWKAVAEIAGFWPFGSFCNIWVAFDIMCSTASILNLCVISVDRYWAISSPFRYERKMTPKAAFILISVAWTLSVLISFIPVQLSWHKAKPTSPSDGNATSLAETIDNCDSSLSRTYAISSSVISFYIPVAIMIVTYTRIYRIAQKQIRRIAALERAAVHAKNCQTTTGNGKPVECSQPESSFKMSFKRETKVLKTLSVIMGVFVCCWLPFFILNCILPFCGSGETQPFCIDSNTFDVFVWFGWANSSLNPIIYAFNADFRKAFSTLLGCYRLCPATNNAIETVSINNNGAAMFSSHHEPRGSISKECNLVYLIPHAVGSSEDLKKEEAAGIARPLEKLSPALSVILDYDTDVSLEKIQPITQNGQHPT

[11] = molecular target: STE20-like serine/threonine-protein kinase (Homo sapiens) (UniProt Q9H2G2); assay: SLK SGC Tm panel (DSF); settings: for ΔTm: Compound concentration 10.0 uM
STE20-like serine/threonine-protein kinase (Homo sapiens), sequence (Q9H2G2 whole entry, looked up): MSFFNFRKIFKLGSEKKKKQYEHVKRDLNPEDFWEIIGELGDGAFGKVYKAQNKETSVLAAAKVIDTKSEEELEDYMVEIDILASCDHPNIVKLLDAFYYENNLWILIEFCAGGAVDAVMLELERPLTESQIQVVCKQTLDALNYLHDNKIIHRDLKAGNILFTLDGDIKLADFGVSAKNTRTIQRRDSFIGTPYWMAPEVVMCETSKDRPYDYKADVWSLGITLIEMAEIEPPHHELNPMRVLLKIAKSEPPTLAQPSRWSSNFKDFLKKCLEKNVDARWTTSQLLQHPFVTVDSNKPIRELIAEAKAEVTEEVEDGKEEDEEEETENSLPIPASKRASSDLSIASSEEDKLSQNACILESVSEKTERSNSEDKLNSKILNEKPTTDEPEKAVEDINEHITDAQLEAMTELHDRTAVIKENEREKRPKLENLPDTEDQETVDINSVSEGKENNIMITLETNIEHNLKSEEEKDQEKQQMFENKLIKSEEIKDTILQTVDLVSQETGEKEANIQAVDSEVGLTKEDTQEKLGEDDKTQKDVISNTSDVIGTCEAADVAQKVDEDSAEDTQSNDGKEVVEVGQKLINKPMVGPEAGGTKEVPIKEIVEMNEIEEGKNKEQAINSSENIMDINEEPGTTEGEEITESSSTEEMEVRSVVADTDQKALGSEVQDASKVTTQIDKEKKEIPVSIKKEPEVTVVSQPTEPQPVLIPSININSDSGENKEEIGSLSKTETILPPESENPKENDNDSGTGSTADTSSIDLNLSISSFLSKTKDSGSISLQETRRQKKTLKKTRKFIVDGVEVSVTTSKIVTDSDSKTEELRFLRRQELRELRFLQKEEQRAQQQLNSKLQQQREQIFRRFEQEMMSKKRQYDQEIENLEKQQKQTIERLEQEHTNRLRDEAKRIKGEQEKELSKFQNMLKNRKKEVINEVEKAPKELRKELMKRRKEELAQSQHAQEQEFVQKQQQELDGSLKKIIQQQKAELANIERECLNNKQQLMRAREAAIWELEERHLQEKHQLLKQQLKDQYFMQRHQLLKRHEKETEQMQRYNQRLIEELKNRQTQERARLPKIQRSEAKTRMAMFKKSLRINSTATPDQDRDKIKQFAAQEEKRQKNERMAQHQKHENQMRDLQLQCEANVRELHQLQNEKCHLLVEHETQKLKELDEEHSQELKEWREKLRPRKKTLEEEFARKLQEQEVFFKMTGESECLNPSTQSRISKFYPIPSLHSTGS

[12] = molecular target: T4, Serine/threonine-protein kinase Nek1 (Homo sapiens) (UniProt Q96PY6); assay: NEK1 SGC Tm panel (DSF); settings: for ΔTm: Compound concentration 10.0 uM
T4 sequence (whole entry): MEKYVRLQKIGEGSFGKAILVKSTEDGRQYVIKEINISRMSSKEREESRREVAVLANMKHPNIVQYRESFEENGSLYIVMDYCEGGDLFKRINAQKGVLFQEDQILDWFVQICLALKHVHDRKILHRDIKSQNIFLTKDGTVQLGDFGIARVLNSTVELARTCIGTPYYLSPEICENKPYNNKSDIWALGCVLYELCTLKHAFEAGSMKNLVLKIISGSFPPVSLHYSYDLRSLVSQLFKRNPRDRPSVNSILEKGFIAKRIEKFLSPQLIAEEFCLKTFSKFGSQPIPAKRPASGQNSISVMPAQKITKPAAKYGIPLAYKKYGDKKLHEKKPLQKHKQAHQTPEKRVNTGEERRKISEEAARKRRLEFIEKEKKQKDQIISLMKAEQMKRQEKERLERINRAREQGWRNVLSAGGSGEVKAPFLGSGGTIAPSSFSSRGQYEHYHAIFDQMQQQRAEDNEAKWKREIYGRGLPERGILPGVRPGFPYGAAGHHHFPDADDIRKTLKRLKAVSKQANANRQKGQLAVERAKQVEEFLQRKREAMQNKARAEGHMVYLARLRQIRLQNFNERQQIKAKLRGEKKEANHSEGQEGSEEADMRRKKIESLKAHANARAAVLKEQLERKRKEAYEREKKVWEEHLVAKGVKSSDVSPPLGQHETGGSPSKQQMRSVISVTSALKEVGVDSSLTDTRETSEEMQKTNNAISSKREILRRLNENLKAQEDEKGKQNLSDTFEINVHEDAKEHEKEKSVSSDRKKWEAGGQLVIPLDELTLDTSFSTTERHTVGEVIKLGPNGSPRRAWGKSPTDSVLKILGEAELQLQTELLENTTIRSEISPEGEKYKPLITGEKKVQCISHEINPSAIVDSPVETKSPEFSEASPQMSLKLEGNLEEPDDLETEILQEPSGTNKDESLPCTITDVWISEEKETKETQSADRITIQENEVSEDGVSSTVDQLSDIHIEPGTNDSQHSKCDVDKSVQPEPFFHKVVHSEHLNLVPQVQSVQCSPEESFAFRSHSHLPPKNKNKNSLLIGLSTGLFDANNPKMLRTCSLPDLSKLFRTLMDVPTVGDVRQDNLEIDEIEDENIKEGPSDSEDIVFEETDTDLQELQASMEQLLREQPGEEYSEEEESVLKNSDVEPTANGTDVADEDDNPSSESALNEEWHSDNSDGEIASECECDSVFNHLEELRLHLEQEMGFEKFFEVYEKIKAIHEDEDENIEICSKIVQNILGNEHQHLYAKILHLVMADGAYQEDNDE

5-hydroxytryptamine receptor 5A (Homo sapiens), sequence (P47898 whole entry): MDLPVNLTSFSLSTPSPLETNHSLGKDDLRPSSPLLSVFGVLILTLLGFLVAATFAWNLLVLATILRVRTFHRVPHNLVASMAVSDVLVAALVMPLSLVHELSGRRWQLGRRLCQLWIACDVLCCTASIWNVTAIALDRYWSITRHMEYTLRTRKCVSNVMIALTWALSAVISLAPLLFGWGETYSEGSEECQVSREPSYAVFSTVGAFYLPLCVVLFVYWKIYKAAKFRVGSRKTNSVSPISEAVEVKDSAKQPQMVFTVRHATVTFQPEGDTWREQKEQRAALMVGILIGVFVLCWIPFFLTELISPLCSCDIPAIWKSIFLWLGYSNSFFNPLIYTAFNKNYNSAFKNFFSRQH

Row | inhibition [1] [%] | delta Tm Staurosporine positive control [2] | ΔTm [2] | delta Tm Staurosporine positive control [3] | ΔTm [3] | inhibition [4] [%] | inhibition [5] [%] | delta Tm Staurosporine positive control [6] | ΔTm [6] | delta Tm Staurosporine positive control [7] | ΔTm [7] | delta Tm Staurosporine positive control [8] | ΔTm [8] | inhibition [9] [%] | inhibition [10] [%] | delta Tm Staurosporine positive control [11] | ΔTm [11] | delta Tm Staurosporine positive control [12] | ΔTm [12] | Compound
1 | 13.9 | 3.19 | 0.296 | 12.1 | 1.65 | 12.4 | 7.09 | 7.87 | 0.458 | 22.7 | 0.554 | 16.5 | 0.205 | 6.59 | 38.9 | 12.2 | 0.23 | -0.578 | -0.482 | C[C@H](NC(=O)c1cn(C2(C#N)CC2)cn1)C(=O)Nc1nc(-c2cccc(-c3ccn(C)n3)c2)cs1
2 | 11.2 | 3.19 | 0.303 | 12.1 | 1.51 | 9.17 | 4.13 | 7.87 | 0.206 | 22.7 | 0.244 | 16.5 | 0.943 | 1.52 | 30.9 | 12.2 | 1.33 | -0.578 | -0.226 | COC[C@H](NC(=O)c1ccn(S(C)(=O)=O)c1)C(=O)Nc1nc(-c2cccc(-c3ccn(C)n3)c2)cs1
